This note sets out measurements from patent publication US20190346463A1, “COMPOSITIONS AND METHOD FOR DETERMINING INSULIN RESISTANCE USING NON-ESTERIFIED FATTY ACID ANALYSIS” (The Penn State Research Foundation, priority 2016, published 2019).

The nature of this experiment: compartmental model of NEFA trafficking in response to a glucose challenge (frequently sampled intravenous glucose tolerance test, FAs measured by GC-MS). The experiment is classed as in vivo. Conditions: greater in IR (p=0.05); mean [95% CI] 55% [14, 76]. The text has this: In general the present disclosure involves analysis of NEFA trafficking by determining kinetic parameters that include, but are not necessarily limited to, the fractional rate of NEFA appearance (Ra), the rate of NEFA disappearance (kNEFA), threshold for glucose-induced suppression (tG), and IC50 for glucose inhibition of NEFA production (gIC50). Those skilled in the art will recognize that each of these parameters is known and can be determined using a variety of established approaches. In this regard the presence or absence, qualitative and quantitative amounts of, and kinetic parameters for one or more NEFAs in a biological sample can be sample determined using, for example, chromatographic methods, such as column chromatography, including High Performance Liquid Chromatography (HPLC) and gas chromatography, and spectroscopy methods including mass spectrometry, nuclear magnetic resonance spectroscopy, infrared spectroscopy, positron emission tomography and other approaches, such as those described in “A novel minimal model to describe NEFA kinetics following an intravenous glucose challenge” Ray C. Boston, Peter J. Moate, American Journal of Physiology—Regulatory, Integrative and Comparative Physiology Apr 2008, 294 (4) R1140-R1147. […]
This Example reflects an ancillary study. […] Six FAs were measured by GC-MS (myristic, palmitic, palmitoleic, stearic, oleic, and linoleic acids). […]

Take `CCCCCCCCCCCCCCCCCC(=O)O` [stearate, stearic acid]: the “kNEFA in IR versus healthy subjects” value worked out at 55%.
